Data: US20090306093A1, “METHOD FOR TREATING PATIENT HAVING BENIGN PROSTATE HYPERPLASIA” (KAOHSIUNG MEDICAL UNIVERSITY, priority 2008, published 2009)

Experiments:
[1] = test system: phenylephrine (10 μM) pre-contracted rat isolated prostate; assay: Relaxation of phenylephrine pre-contracted rat isolated prostate strips (isometric tension); conditions: for relaxation: 10 μM, 1 hour
Protocol: The rat isolated prostate tissue was prepared as previously described with modifications^[10]. Briefly, Wistar rats (300-400 g) were killed with pentobarbital sodium (30 mg/kg) and the ventral part of their prostates were quickly excised. […] O2 and 5% CO2.
Isometric tension was recorded with a force displacement transducer (UGO BASILE, Model 7004, Italy). After the equilibration period, the strips were primed twice by adding 10 μM of the agonist, phenylephrine, to reach 80-100% of maximum contraction. […] The relaxation on rat prostate by KMUP-1 (0.01-100 μM) and tamsulosin (0.001 nM-100 μM) were also tested by their combination with sildenafil (0.1 μM), respectively. In isolated prostate strips, while stable constriction to phenylephrine was reached, sildenafil (0.1 μM) was pre-incubation for 30 minutes, before the cumulative addition of KMUP-1 (0.01-100 μM) or tamsulosin (0.001 nM-100 μM) to isolated prostate strips. In another experiment, to examine the possible mechanism of action of KMUP-1, rat prostates were pretreated with ODQ (1H-[1,2,4]oxadiazolo[4,3-a]quinoxalin-1-one, 10 μM, sGC inhibitor), RP-8pCPT-cGMPs (10 μM, PKG inhibitor), glibenclamide (10 μM, KATP channel blocker), 4-AP (4-aminopyridine, 100 μM, voltage-dependent K^+ channel blocker), apamin (1 μM, Ca^2+-dependent K^+ channel blocker) and charybdotoxin (ChTX) (0.1 μM, Ca^2+-dependent K^+ channel blocker) for 30 minutes before addition of KMUP-1 (100 μM).

ROCK2 = assay: Western blot of phenylephrine-induced Rho kinase (ROCK2) expression in rat prostate; conditions: KMUP-1 10, 100 μM; Y-27632 10 μM; phenylephrine 10 μM
Protocol: In order to examine the expression of Rho kinase in prostate, the prostate strips were pre-incubated with phenylephrine (10 μM) for 30 minutes. After a pre-treatment of phenylephrine, KMUP-1 (10-100 μM) and Y-27632 (10 μM) were further incubated for 30 minutes. After the incubation time, the prostate were extracted with protein extraction reagent (Pierce Biotechnology, Inc., Rockford, Ill., USA.). The PZ-HPV-7 cells were incubated with and without KMUP-1 (0.1-10 μM) at 30 minutes, 8 and 24 hours. They were then washed rapidly with ice-cold PBS, incubated with protein extraction reagent, and scraped from the plates. The prostate tissues and cells were sonicated three times for 10 second each time and centrifuged at 13,000 rpm at 4° C. for 30 minutes. The protein concentrations of supernatants were determined, using bovine serum albumin as the standard. Tissue and cell extract protein were then boiled at a ratio of 4:1 with sample buffer (100 mM Tris, pH 6.8, 20% glycerol, 4% SDS, and 0.2% bromphenol blue). 40-60 μg protein was used in this experiment. Electrophoresis was performed using 10 or 12% SDS-polyacrylamide gel electrophoresis and then transferred to nitrocellulose membranes (Millipore Corporation, Billerica, Mass.). […] The intensity of the bands was measured by densitometry.

a1A-adrenergic receptor = conditions: data from the reference; cited from earlier work
PKG = assay: Western blot of PKG expression in rat prostate; conditions: KMUP-1 10, 100 μM; sildenafil, zaprinast 100 μM
Protocol: (§1) Prostate strips were incubated with KMUP-1 (10-100 μM), sildenafil (100 μM) and zaprinast (100 μM) in 10 mL Tyrode solution aerated with 95% O2 and 5% CO2 for 1 hour. To examine the possible mechanisms of KMUP-1 action, the rat prostate were pretreated with ODQ (10 μM), SQ22536 (10 μM) and RP-8pCPT-cGMPs (10 μM) for 30 minutes prior to the addition of KMUP-1 (100 μM).
(§2) In order to examine the expression of Rho kinase in prostate, the prostate strips were pre-incubated with phenylephrine (10 μM) for 30 minutes. After a pre-treatment of phenylephrine, KMUP-1 (10-100 μM) and Y-27632 (10 μM) were further incubated for 30 minutes. After the incubation time, the prostate were extracted with protein extraction reagent (Pierce Biotechnology, Inc., Rockford, Ill., USA.). The PZ-HPV-7 cells were incubated with and without KMUP-1 (0.1-10 μM) at 30 minutes, 8 and 24 hours. They were then washed rapidly with ice-cold PBS, incubated with protein extraction reagent, and scraped from the plates. The prostate tissues and cells were sonicated three times for 10 second each time and centrifuged at 13,000 rpm at 4° C. for 30 minutes. The protein concentrations of supernatants were determined, using bovine serum albumin as the standard. Tissue and cell extract protein were then boiled at a ratio of 4:1 with sample buffer (100 mM Tris, pH 6.8, 20% glycerol, 4% SDS, and 0.2% bromphenol blue). 40-60 μg protein was used in this experiment. Electrophoresis was performed using 10 or 12% SDS-polyacrylamide gel electrophoresis and then transferred to nitrocellulose membranes (Millipore Corporation, Billerica, Mass.). The membrane was blocked with Tris-buffered saline (20 mM Tris and 137 mM NaCl, pH 7.6) containing 0.1% Tween 20 (TTBS) and 5% non-fat milk at room temperature for 1 hour, washed with TTBS, and then incubated overnight at 4° C. in the appropriate primary antibody of PKG (Santa Cruz, 1:200), sGCa1 (Santa Cruz, 1:200), PKA (Abcam, 1:1000), ROCK2 (Upstate, 1:1000), and PDE5A (BD Biosciences, 1:1000), p21 (Upstate, 1:1000). The membranes were washed in TTBS before being incubated with horseradish peroxidase-conjugated antibody against mouse, goat, or rabbit IgG (Santa Cruz, 1:1000) for 1 hour. The membrane was then washed in TTBS and developed with the enhanced chemiluminescence (ECL) for the detection of the specific antigen. The intensity of the bands was measured by densitometry.

sGCa1 = assay: Western blot of sGCa1 expression in rat prostate; conditions: KMUP-1 10-100 μM; sildenafil, zaprinast 100 μM; 1 hour
Protocol: as §1, §2

cGMP = assay: Determination of cGMP in rat isolated prostate (radioimmunoassay); conditions: 100 μM, 1 hour
Protocol: Isolated prostate strips from Wistar rats were prepared to determine prostate levels of cGMP and cAMP. Briefly, prostate strips were respectively incubated with KMUP-1 (10-100 μM), sildenafil (100 μM), and zaprinast (100 μM) in 10 mL Tyrode solution aerated with 95% O2 and 5% CO2 for 1 hour. To examine the possible mechanisms of action of KMUP-1, the rat prostate was pretreated with ODQ (10 μM, sGC inhibitor) and SQ22536 (9-(tetrahydro-2-furanyl)-9H-purin-6-amine, 10 μM, adenylyl cyclase inhibitor) for 30 minutes before KMUP-1 was added. After the incubation, the prostate tissues were extracted with 1 mL of 0.1 N HCl. The extracts were then lyophilized for a further measurement of cyclic GMP or cyclic AMP of each sample, using commercially available radioimmunoassay kits (Amersham Pharmacia Biotech, Buckinghamshire, England).

[2] = phenylephrine 10 μM pre-contracted

Row | SMILES | relaxation [1, 2] | Receptor Affinity (pKi) a1A (a1A-adrenergic receptor) | expression of PKG (PKG) | expression of sGCa1 (sGCa1) | cGMP levels (cGMP) | further results
1 | Nc1nc2c(nc(Sc3ccc(Cl)cc3)n2C2O[C@@H]3COP(=O)(O)O[C@H]3[C@H]2O)c(=O)[nH]1 (stereo in doubt) [8-pCPT-cGMP, reference compound] | 35.00±4.40% | – | – | – | – | –
2 | C[C@@H](N)[C@H]1CC[C@H](C(=O)Nc2ccncc2)CC1 [Y-27632, reference compound] | – | – | – | – | – | phenylephrine-induced Rho kinase expression (ROCK2): protected against phenylephrine-induced Rho kinase expression
3 | COc1cc2nc(N3CCN(C(=O)C4COc5ccccc5O4)CC3)nc(N)c2cc1OC (centres unmarked) [doxazosin, reference compound] | 73.00±2.8% | 8.56 | – | – | – | –
4 | CCCc1nn(C)c2c(=O)[nH]c(-c3cc(S(=O)(=O)N4CCN(C)CC4)ccc3OCC)nc12 [sildenafil, reference compound] | 50.00±6.37% | – | significantly induce | do not significantly induce | 3.20±0.61 pmol mg^−1 protein | relaxation ability ([1]; 0.1 μM, phenylephrine 10 μM pre-contracted): 21.50±2.12%; relaxation ability ([1]; fourth value of the sentence, concentration not given): 78.00±8.02%
5 | CCOc1ccccc1OCCN[C@H](C)Cc1ccc(OC)c(S(N)(=O)=O)c1 [tamsulosin, reference compound] | 107.50±6.76% | 9.7 | – | – | – | Selective Ratio a1A/a1B (a1A-adrenergic receptor): 6.3; Selective Ratio a1A/a1D (a1A-adrenergic receptor): 0.2; relaxation activity ([1]; 100 μM combined with sildenafil 0.1 μM): 140.00±10.14%; relaxation ability ([1]; 100 μM, phenylephrine 10 μM pre-contracted): 118.00±10.79%
6 | CCCOc1ccccc1-c1nc2nn[nH]c2c(=O)[nH]1 [zaprinast, reference compound] | 79.00±5.00% | – | significantly induce | do not significantly induce | 2.23±0.24 pmol mg^−1 protein | –
